The source of these data is PubChem BioAssay (NCI).

Among the test systems are RPMI-8226 leukemia; HCC-2998 colon; HOP-92 NSCLC; U251 CNS; DU-145 prostate; SNB-19 CNS; NCI-H460 lung; OVCAR-8 ovarian; NCI/ADR-RES ovarian; SK-MEL-2 melanoma.
Test in all cases: NCI-60 cell line screen, 48 h

Structures are written as SMILES. “And” between values parts separate entries of the source, which are not always exact repeats. Identical values can stand only once.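 Method: 48-hour compound exposure of cells in 96-well plates, five concentrations, linear interpolation of endpoints. GI50 = concentration required for 50% inhibition of growth. At the TGI there is no net growth.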

With `CN1CCN(CCCN2c3ccccc3Sc3ccc(Cl)cc32)CC1`, the GI50 with RPMI-8226 leukemia was 6.16 µM; with HCC-2998 colon, 3.53 µM; with HOP-92 NSCLC, 0.894 µM; in the experiment on DU-145 prostate, 6.53 µM and 50.9 µM; in the experiment on SNB-19 CNS, 7.05 µM and 60.7 µM; in the experiment on OVCAR-8 ovarian, 7.39 µM and 42.8 µM. The GI50 with NCI/ADR-RES ovarian is 6 µM and 44.5 µM; with SK-MEL-2 melanoma, 40.9 µM. In addition, the TGI with RPMI-8226 leukemia was 16 µM; with HCC-2998 colon, 10.3 µM; in the experiment with HOP-92 NSCLC, 5.25 µM; with U251 CNS, 11.8 µM and 87.3 µM; in the experiment on DU-145 prostate it was 13.5 µM and 94.6 µM; in the experiment on SNB-19 CNS, 14.3 µM. In addition, the TGI in the experiment on NCI-H460 lung is 11.4 µM and 80.5 µM; in the experiment with OVCAR-8 ovarian, 14.8 µM; in the experiment with NCI/ADR-RES ovarian, 12.8 µM and 78.6 µM; with SK-MEL-2 melanoma, 59.5 µM.

On to `Cn1c(=O)c(Oc2ccc(F)cc2F)cc2cnc(NC3CCOCC3)nc21`, for which the GI50 with RPMI-8226 leukemia is over 21.1 µM; with HCC-2998 colon it was over 25 µM; with HOP-92 NSCLC it was 0.601 µM; in the experiment on U251 CNS, over 25 µM; in the experiment with DU-145 prostate, over 25 µM; with SNB-19 CNS it was over 25 µM. For the same compound, the GI50 in the experiment with NCI-H460 lung, with OVCAR-8 ovarian, in the experiment with NCI/ADR-RES ovarian and in the experiment on SK-MEL-2 melanoma was over 25 µM each time. Further, the TGI is over 25 µM in the experiment on RPMI-8226 leukemia; over 25 µM in the experiment on HCC-2998 colon; 19.4 µM with HOP-92 NSCLC; over 25 µM with U251 CNS; over 25 µM in the experiment on DU-145 prostate; over 25 µM in the experiment with SNB-19 CNS. Moreover, the TGI in the experiment with NCI-H460 lung, in the experiment on OVCAR-8 ovarian, in the experiment with NCI/ADR-RES ovarian and with SK-MEL-2 melanoma was over 25 µM in each case.

As to `Cc1ccsc1-c1ccc2c(c1)COC2(CCCN(C)C)c1ccc(F)cc1` (configuration not stated), the GI50 in the experiment on RPMI-8226 leukemia is 2.12 µM; in the experiment on HCC-2998 colon it was 1.71 µM; with HOP-92 NSCLC, 1.76 µM; in the experiment on U251 CNS, 1.95 µM; in the experiment on DU-145 prostate, 3.17 µM; with SNB-19 CNS, 2.77 µM. Moreover, the GI50 is 1.77 µM in the experiment on NCI-H460 lung, 3.28 µM in the experiment on OVCAR-8 ovarian, 3.83 µM in the experiment with NCI/ADR-RES ovarian and 2.78 µM in the experiment with SK-MEL-2 melanoma. Also, the TGI in the experiment with RPMI-8226 leukemia was found to be 4.88 µM; in the experiment on HCC-2998 colon, 3.25 µM; with HOP-92 NSCLC it was 7.44 µM; in the experiment on U251 CNS, 4.24 µM; in the experiment on DU-145 prostate it was 10.8 µM; with SNB-19 CNS, 10.3 µM. Besides, the TGI turned out to be 3.49 µM in the experiment with NCI-H460 lung, 13.2 µM in the experiment with OVCAR-8 ovarian, 15.2 µM in the experiment with NCI/ADR-RES ovarian and 7.48 µM in the experiment on SK-MEL-2 melanoma.

`CN(C)C=Nc1c(I)cc(I)c(CCC(=O)O)c1I`: the GI50 in the experiment on RPMI-8226 leukemia was over 100 µM; with HCC-2998 colon, over 100 µM; with HOP-92 NSCLC it was 45.4 µM; in the experiment with U251 CNS it was over 100 µM; in the experiment with DU-145 prostate it was over 100 µM; with SNB-19 CNS, over 100 µM. Further, the GI50 with NCI-H460 lung, in the experiment on OVCAR-8 ovarian, with NCI/ADR-RES ovarian and in the experiment on SK-MEL-2 melanoma was over 100 µM throughout. In addition, the TGI in the experiment with RPMI-8226 leukemia, with HCC-2998 colon, in the experiment on HOP-92 NSCLC, in the experiment on U251 CNS, in the experiment on DU-145 prostate and with SNB-19 CNS was over 100 µM throughout. Also, the TGI in the experiment on NCI-H460 lung, in the experiment on OVCAR-8 ovarian, in the experiment on NCI/ADR-RES ovarian and in the experiment on SK-MEL-2 melanoma was over 100 µM in each case.

In the case of `O=[N+]([O-])c1ccc2c(c1)C(c1ccccc1Cl)=Nc1c(n[nH]c1-c1cccnc1)N2`, the GI50 in the experiment on RPMI-8226 leukemia, in the experiment on HCC-2998 colon, in the experiment with HOP-92 NSCLC, in the experiment with U251 CNS, with DU-145 prostate and with SNB-19 CNS was over 25 µM in each case. The GI50 in the experiment with NCI-H460 lung, with OVCAR-8 ovarian, in the experiment with NCI/ADR-RES ovarian and with SK-MEL-2 melanoma was over 25 µM each time. Also, the TGI in the experiment on RPMI-8226 leukemia, in the experiment on HCC-2998 colon, in the experiment on HOP-92 NSCLC, in the experiment on U251 CNS, in the experiment on DU-145 prostate and with SNB-19 CNS was over 25 µM in each case. Also, the TGI with NCI-H460 lung, in the experiment on OVCAR-8 ovarian, with NCI/ADR-RES ovarian and in the experiment with SK-MEL-2 melanoma was over 25 µM each time.

Consider `COc1ccc(NC(=O)c2ccc(NC3=C(Cl)C(=O)N(Cc4ccccc4)C3=O)cc2)c(OC)c1`, for which the GI50 in the experiment with RPMI-8226 leukemia is 4.85 µM; in the experiment with HCC-2998 colon, 10.1 µM; in the experiment with HOP-92 NSCLC it was 6.27 µM; in the experiment with U251 CNS it was 27.2 µM; in the experiment with DU-145 prostate it was 28.8 µM; in the experiment on SNB-19 CNS, 57.4 µM. Besides, the GI50 was 38.4 µM with NCI-H460 lung, 29.2 µM in the experiment with OVCAR-8 ovarian, 17.8 µM with NCI/ADR-RES ovarian and 25.7 µM with SK-MEL-2 melanoma. Moreover, the TGI is 22.8 µM with RPMI-8226 leukemia; 21.7 µM with HCC-2998 colon; 47 µM in the experiment with HOP-92 NSCLC; 86.3 µM in the experiment with U251 CNS; 85.7 µM in the experiment with DU-145 prostate; over 100 µM in the experiment with SNB-19 CNS. Besides, the TGI in the experiment on NCI-H460 lung is over 100 µM; in the experiment with OVCAR-8 ovarian, over 100 µM; with NCI/ADR-RES ovarian, 47.3 µM; in the experiment with SK-MEL-2 melanoma, 68.9 µM.

For the compound `COc1ccc(-c2[nH]nc(N)c2-c2cc(OC)c(OC)c(OC)c2)cc1`, the GI50 in the experiment with RPMI-8226 leukemia is 0.0352 µM; in the experiment with HCC-2998 colon, 0.0396 µM; in the experiment with HOP-92 NSCLC, 0.148 µM; with U251 CNS, 0.0424 µM; with DU-145 prostate, 0.0354 µM; in the experiment with SNB-19 CNS, 0.519 µM. Besides, the GI50 was 0.0363 µM in the experiment on NCI-H460 lung, 0.0459 µM in the experiment with OVCAR-8 ovarian, 0.0283 µM in the experiment with NCI/ADR-RES ovarian and 0.0379 µM in the experiment on SK-MEL-2 melanoma. For the same compound, the TGI was 7.69 µM with RPMI-8226 leukemia; 1.4 µM in the experiment on HCC-2998 colon; 19.7 µM with HOP-92 NSCLC; over 100 µM in the experiment on U251 CNS; 1.76 µM with DU-145 prostate; over 100 µM in the experiment with SNB-19 CNS. For the same compound, the results for the TGI in the experiment on NCI-H460 lung, in the experiment on OVCAR-8 ovarian and in the experiment with SK-MEL-2 melanoma were over 33.7 µM, over 100 µM and over 100 µM, respectively.
